Values quoted from earlier work in patent US20080107723A1, “Methods of Treating Pulmonary Distress” (priority 2006, published 2008).

Legend:
[1] = administered by inhalation; CF patients
[2] = tested on: colony forming units (CFU); settings: administered by inhalation; CF patients

Molecule	improvement in FEV1 [1]	reduction in colony forming units (CFU) [2]
NC[C@H]1O[C@H](O[C@H]2[C@H](O)[C@@H](O[C@H]3O[C@H](CO)[C@@H](O)[C@H](N)[C@H]3O)[C@H](N)C[C@@H]2N)[C@H](N)C[C@@H]1O [Tobramycin]	approximately 10%	about 2 log units
Pulmozyme: recombinant human Dnase administered by inhalation (protein, UniProt P24855 23-282, looked up) Deoxyribonuclease-1: LKIAAFNIQTFGETKMSNATLVSYIVQILSRYDIALVQEVRDSHLTAVGKLLDNLNQDAPDTYHYVVSEPLGRNSYKERYLFVYRPDQVSAVDSYYYDDGCEPCGNDTFNREPAIVRFFSRFTEVREFAIVPLHAAPGDAVAEIDALYDVYLDVQEKWGLEDVMLMGDFNAGCSYVRPSQWSSIRLWTSPTFQWLIPDSADTTATPTHCAYDRIVVAGMLLRGAVVPDSALPFNFQAAYGLSDQLAQAISDHYPVEVMLK	approximately 10%	–
